Measurements reported in patent US20190022039A1, “COMPOUND HAVING ENHANCING ACTIVITY FOR GLUCAGON-LIKE PEPTIDE-1 RECEPTOR ACTIONS” (AJINOMOTO CO., INC., priority 2016, published 2019).

How the values were obtained:
KKAy mice [1] = test: Food intake-suppressive effect in diabetes model mouse; format: in vivo; settings: male KKAy mice fasted overnight, 3 mg/kg oral in simulated intestinal fluid, 4 hr after administration, vs simulated intestinal fluid group (FIG. 3)
Method: 11-week-old male KKAy mice were randomly divided into 2 groups. After fasting overnight, simulated intestinal fluid (containing 10 mM taurocholic acid, 2 mM lecithin, 55 mM maleic acid, 81.6 mM sodium hydroxide, 125 mM sodium chloride), or the compound of the present invention (compound 96) dissolved in the simulated intestinal fluid was orally administered (3 mg/kg), a commercially available feed (CRF-1, manufactured by Oriental Yeast Co., ltd.) was given and changes in the food intake was monitored.

human GLP-1R = molecular target: T1, human GLP-1R (Homo sapiens, UniProt P43220); test: GLP-1 receptor in vitro calcium assay (intracellular free calcium concentration change induced via GLP-1 receptor); format: cell-based; settings: for EC50: PRG48 cells transfected with human GLP-1R, compound added with 250 pM GLP-1, Ca2+ response ΔF/F, read-out: Ca EC50 value; for GLP-1 receptor action enhancing activity (vs BETP): intensity compared to BETP, activity of BETP as 1
T1 construct: expressed in transfected cells; host or cells: PEAK RAPID-derived Gα15-trans48 LD stably expressing cells (PRG48), transiently transfected with Lipofectamine 2000
Outline: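 PRG48 cells transiently transfected with human GLP-1R and loaded with calcium dye in HEPES buffer containing probenecid. Compound added together with 250 pM GLP-1; fluorescence (Ex480/Em540) recorded before and after addition. ΔF/F computed and EC50 fitted from it.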

[2] = system: isolated rat islets of Langerhans; test: Glucose-stimulated insulin secretion in isolated rat islets of Langerhans; format: cell-based
Method: The islets of Langerhans were isolated from the pancreas of male Wistar rats at around 10 weeks of age, according to a conventional method and using collagenase and Ficoll-Conray solution (Cryobiology, 2006, 52:90-8), and used for the activity evaluation of the compound.
The isolated islets were precultured in glucose-free Krebs Ringer Bicarbonate-Hepes buffer (KRBH: 129 mM NaCl, 4.7 mM KCl, 5.0 mM NaHCO3, 1.2 mM MgSO4, […], 2.5 mM CaCl2, 10 mM HEPES, pH 7.4) under the conditions of 37° C., 5% CO2 for 30 min and seeded in each well of a 24 well plate by 5 islets. […] The culture supernatant was recovered from each well after culturing for 1 hr, and the concentration of insulin secreted in the supernatant was measured using a commercially available measurement kit (manufactured by Morinaga Institute of Biological Science, Inc.). The insulin secretion amounts under respective stimulation conditions were calculated as secretion amounts relative to the secretion amount at 8.3 mM glucose.

KKAy mice [3] = test: Blood glucose increase suppressive effect in diabetes model mouse after whey protein and glucose load; format: in vivo; settings: male KKAy mice, 3 mg/kg intraperitoneal
Method: 23-week-old male KKAy mice fasted overnight were randomly divided into 2 groups, and whey protein was orally administered to each mouse at 3 g/kg to induce endogenous GLP-1 secretion. At 30 min after whey protein administration, the compound of the present invention (compound 50) or administration medium (vehicle) was intraperitoneally administered to each mouse at 3 mg/kg, glucose was orally administered immediately thereafter at 2 g/kg, blood samples were collected from the tail vein over time, and the blood glucose level was measured.

T1 sequence (P43220 24-463): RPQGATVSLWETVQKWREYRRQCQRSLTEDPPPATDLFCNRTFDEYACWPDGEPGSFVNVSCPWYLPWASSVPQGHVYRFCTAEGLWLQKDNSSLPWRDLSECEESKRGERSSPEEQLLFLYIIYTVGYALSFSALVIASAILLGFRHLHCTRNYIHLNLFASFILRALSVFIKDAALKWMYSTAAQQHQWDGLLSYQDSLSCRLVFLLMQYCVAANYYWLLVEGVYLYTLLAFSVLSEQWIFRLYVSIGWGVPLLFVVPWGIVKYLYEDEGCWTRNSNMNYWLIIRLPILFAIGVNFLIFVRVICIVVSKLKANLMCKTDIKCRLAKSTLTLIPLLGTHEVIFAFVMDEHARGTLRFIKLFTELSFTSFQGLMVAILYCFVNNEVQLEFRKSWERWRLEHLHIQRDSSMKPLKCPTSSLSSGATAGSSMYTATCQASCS

Structure (SMILES): CCCCCCNC(=O)[C@@H](Cc1cccnc1)NC(=O)Nc1ccc(NS(=O)(=O)c2ccc(C(C)(C)C)cc2)cc1 [Compound 96]
- cumulative food consumption (KKAy mice [1]): significant suppression
- EC50 (human GLP-1R): 0.6 µM
- GLP-1 receptor action enhancing activity (vs BETP) (human GLP-1R): 42

Structure (SMILES): CCCCC(CC)CNC(=O)[C@H](CC1CCCCC1)NC(=O)Nc1ccc(NS(=O)(=O)c2ccc(C(C)(C)C)cc2)cc1 (stereo partly drawn) [Compound 50]
- EC50 (human GLP-1R): 0.0068 µM
- GLP-1 receptor action enhancing activity (vs BETP) (human GLP-1R): 3720
- insulin secretion ([2]; 30 μM compound 50 alone in buffer containing 8.3 mM glucose, 1 hr): did not affect insulin secretion
- increase in insulin secretion amount as compared to 8.3 mM glucose alone ([2]; simultaneous addition of 30 μM compound 50 and 1 nM exendin-4, 8.3 mM glucose, 1 hr (FIG. 1)): about 2 fold
- blood glucose at the time of peak (KKAy mice [3]; 30 min after whey protein 3 g/kg, glucose 2 g/kg oral, peak 30 min after glucose (FIG. 2A)): suppression of blood glucose increase at the time of peak
- blood glucose AUC value (KKAy mice [3]; 180 min after glucose administration, p<0.05 vs vehicle (FIG. 2B)): 734.3 ± 65.9 mg·h/dL
